# How the values were obtained:
# in vitro = conditions: human; for efflux ratio at 2 h: Caco-2, pH 7.4, Efflux ratio; for Papp A→B at 2 h: Caco-2, pH 7.4, Papp A–B; for Papp B→A at 2 h: Caco-2, pH 7.4, Papp B–A
# Procedure: Media were changed every 2–3 days and transwells cultured at 37°C, 5% CO2 for 21 days, after which transport studies were performed. […] Samples of 100 μL were removed from the A side and 200 μL from the B side at time points over 2 h, replacing with fresh prewarmed media (37°C) to mimic sink conditions. […] Cultures were maintained at 37°C and 5% CO2 throughout the experiment.
# [1] = Dissolution testing of ODTs in biorelevant media (USP 2 paddle), f1/f2 comparison; assay type: physicochemical; conditions: for Similarity factor f2 / Difference factor f1: single (reference) vs FDC (test) dissolution profile; for Similarity factor f2: similar if above 50; for Difference factor f1: similar if below 15; for >85% dissolution ≤15 min: single and FDC formulations; for Results of f1 and f2 testing: similar if f1 below 15 and f2 above 50
# Procedure: API dissolution from ODTs in 900 mL biorelevant media was tested in both FaSSIF and FeSSIF at pH 6.5 and 5, respectively, and maintained at 37°C. An ERWEKA DT 600 USP 2 paddle apparatus (Heusenstamm, Germany) was used at a paddle speed of 50 rpm.[27] A total of 5 mL of sample was taken over 2 h, replacing with 5 mL fresh media to simulate sink conditions. API dissolution was measured using HPLC and corrected for percent dose dissolved.
# Differences between dissolution profiles of APIs in single dose (reference) and combination (test) were assessed using f1 and f2 difference and similarity factor testing using the equations:[34] f1={[∑t=1n|Rt−Tt|]/[∑t=1nRt]}*100f2=50*log{[1+(1/n)∑t=1n(Rt−Tt)^2]^−0.5*100} where Rt and Tt are the percent drug-dissolved value at each time point for the reference and test product, respectively, and n is the number of time points.
# LDL-C = conditions: hypercholesterolemic patients; cited from earlier work
# [2] = amlodipine (20 μg/mL) and atorvastatin (40 μg/mL) in combination, pH 7.4, n=3, mean ± SD
# [3] = drug alone (amlodipine 20 μg/mL, atorvastatin 40 μg/mL), pH 7.4 both compartments, n=3, mean ± SD
smiles,measurement,setting,value
"CCOC(=O)C1=C(COCCN)NC(C)=C(C(=O)OC)C1c1ccccc1Cl (centres unmarked) [Amlodipine, Amlodipine besylate]",efflux ratio at 2 h,"in vitro; amlodipine and atorvastatin in combination, pH 7.4",0.96
same,efflux ratio at 2 h,"in vitro; drug alone, pH 7.4 both compartments",1.14
same,Papp A→B at 2 h,in vitro; [2],5.4 ± 0.48 ×10⁻⁶ cm/s
same,Papp A→B at 2 h,in vitro; [3],8.34 ± 0.32 ×10⁻⁶ cm/s
same,Papp B→A at 2 h,in vitro; [2],5.18 ± 0.29 ×10⁻⁶ cm/s
same,Papp B→A at 2 h,in vitro; [3],9.51 ± 1.7 ×10⁻⁶ cm/s
same,Dissolution within 15 min,"[1]; FaSSIF, both single and FDC ODT",exceeded 85%
same,Similarity factor f2,[1]; FaSSIF,70.80
same,Difference factor f1,[1]; FaSSIF,5.08
same,>85% dissolution ≤15 min,[1]; FaSSIF,Yes
same,Results of f1 and f2 testing,[1]; FaSSIF,Pass
same,Dissolution within 15 min,"[1]; FeSSIF, either single or FDC ODT",≤ 85%
same,Similarity factor f2,[1]; FeSSIF,45.40
same,Difference factor f1,[1]; FeSSIF,15.92
same,>85% dissolution ≤15 min,[1]; FeSSIF,No
same,Results of f1 and f2 testing,[1]; FeSSIF,Fail
"CC(C)c1c(C(=O)Nc2ccccc2)c(-c2ccccc2)c(-c2ccc(F)cc2)n1CC[C@@H](O)C[C@@H](O)CC(=O)O [Atorvastatin, atorvastatin calcium]",Reduction of LDL-C,LDL-C,41%–61%
same,Similarity factor f2,[1]; FaSSIF,53.81
same,Difference factor f1,[1]; FaSSIF,14.16
same,Results of f1 and f2 testing,[1]; FaSSIF,Pass
same,Similarity factor f2,[1]; FeSSIF,54.59
same,Difference factor f1,[1]; FeSSIF,13.24
same,Results of f1 and f2 testing,[1]; FeSSIF,Pass

# Source: publication PMC5358997, “Fixed-dose combination orally disintegrating tablets to treat cardiovascular disease: formulation, in vitro characterization and physiologically based pharmacokinetic modeling to assess bioavailability” (Drug Design, Development and Therapy, 2017)
